Data as given in US9549912B2, “Methods for treating atrial fibrillation” (Armetheon, Inc., priority 2009, dated 2017).

Legend:
[1] = Trough plasma concentrations of ATI-2042 and metabolites (Example 1); type: in vivo, human
Method: Patients were enrolled within 8 weeks of screening. During the study, they were reviewed on days 1, 2, and 8 of each study period. ATI-2042 was increased on day 1 of each 2-week study period, following routine bloods for haematology, biochemistry, and coagulation screens. Plasma samples for pharmacokinetic analysis of ATI-2042 and its metabolites were taken at steady state at the end of each study period just prior to the first escalated dose of the subsequent period and within 15 min prior to the pre-dose ECG for that dose.
Trough concentrations of ATI-2042 and its metabolites (ATI-2000, ATI-2100, and ATI-2142), measured at pre-dose on day 1 of each of the four treatment periods and on days 1 and 8 of the washout period, were summarized by time point. Spearman's rank correlation was used to examine the relationship between trough concentrations of ATI-2042 and AFB.

[2] = test system: sodium, potassium, and calcium ion channels; assay: Electrophysiological activity in animals: ion channel inhibition
[3] = test system: patients with paroxysmal atrial fibrillation (PAF); assay: Randomized, double-blind, placebo-controlled study of budiodarone in PAF patients with pacemakers: AT/AF burden, episodes, NSR, GCI (Example 2); type: in vivo, human
Source text: The objective of the study is to determine the efficacy of budiodarone in reducing atrial tachyarrhythmia (AT/AF) burden in patients with paroxysmal atrial fibrillation (PAF) compared to placebo, for 12 weeks of treatment, and the safety and tolerability of budiodarone for up to 12 weeks of treatment.
Secondary: to study the effect of budiodarone versus placebo on the number and duration of AT/AF episodes, duration of normal sinus rhythm (NSR) between episodes of AT/AF and on symptoms associated with PAF.
Example 2 describes a multicenter, multinational, randomized, double-blind, placebo-controlled, parallel-group study of the efficacy and safety of budiodarone in patients with PAF. Planned enrollment was up to 140 patients (with eventually 110 enrolled) with proven PAF who had permanently implanted pacemakers with appropriate AT/AF diagnostic and recording capabilities. Potential study participants underwent screening assessments, including the optimization of pacemaker programming for accurate AT/AF detection. Within 30 days after screening assessments began, eligible patients entered a 4-week baseline period (Period 1) when baseline atrial fibrillation burden (AFB) was established followed by randomization to one of three active treatment regimens or placebo for a 12-week treatment period (Period 2), followed by a 4-week washout period (Period 3). During the treatment period, patients received twice-daily (BID) oral doses of 200 mg ATI-2042, 400 mg ATI-2042, 600 mg ATI-2042, or placebo. No study drug was given during the baseline and washout periods.
To be randomized, study participant must have had: an AT/AF burden between 5% and 70% during the baseline period; no evidence of persistent AF (i.e., 7 or more consecutive days of AT/AF with episodes lasting >23 hours); able to have pacemaker atrial antitachyarrhythmia treatment algorithms turned off for the remaining duration of the study.
Efficacy outcome measures were AT/AF burden (total time spent in AT/AF as a percentage of total observation time), number and mean duration of AT/AF episodes, mean duration of NSR, patient global clinical impression (GCI) questionnaire, and University of Toronto Atrial Fibrillation Severity Scale (AFSS).
Statistical methods for efficacy: The primary efficacy analysis was the percent change in the AT/AF burden from baseline to the 12-week treatment period. Pairwise comparisons between each ATI-2042 dose group and the placebo group were performed using the Wilcoxon rank sum test. The primary analysis was based on the mITT population.
For all variables based on the pacemaker data, the Wilcoxon rank sum test was used to compare each ATI-2042 dose group to the placebo group. The Jonckheere-Terpstra test was used to test for a dose response. The Wilcoxon signed rank test was used to test for a significant change from baseline within each treatment group. An analysis of covariance (ANCOVA) was used to compare the percent change from baseline in AT/AF burden among the treatment groups after adjusting for the baseline AT/AF burden. The ANCOVA model contained effects for treatment group and baseline AT/AF burden.
For patient […], the Cochran-Mantel-Haenszel test was used to compare each ATI-2042 dose group to the placebo group. The Jonckheere-Terpstra test was used to test for a dose response.

[4] = 600 mg BID, Treatment Months 1-3, ITT
[5] = 600 mg BID, Treatment Months 1-3, mITT

(S)-sec-butyl 2-(3-(4-(2-(diethylamino)ethoxy)-3,5-diiodobenzoyl)benzofuran-2-yl)acetate [ATI-2042]
mean trough level of ATI-2042 ([1]; 200 mg bid, steady state): 2.4 ± 0.9 ng/mL
mean trough level of ATI-2042 ([1]; 400 mg bid): 5.2 ± 1.7 ng/mL
mean trough level of ATI-2042 ([1]; 600 mg bid): 13.1 ± 5.6 ng/mL
mean trough level of ATI-2042 ([1]; 800 mg bid): 19.8 ± 17.9 ng/mL
trough level of ATI-2042 ([1]; washout): 0.3+0.4 ng/mL
inhibition of sodium, potassium, and calcium ion channels [2]: inhibition comparable with amiodarone
decrease in AFB ([3]; 200 mg BID, mITT population, not statistically significant): 10%
median percent reduction from baseline in AT/AF burden ([3]; 400 mg BID, Treatment Months 1-3, ITT population): 54%
median percent reduction from baseline in AT/AF burden ([3]; 400 mg BID, Treatment Months 1-3, mITT population): 54%
AF episodes lasting 24 hours (FIG. 6) ([3]; 400 mg dose cohort): only a single 24 hour episode
patients with AF eradicated during the study period ([3]; 600 mg): More than half the patients had their AF eradicated
reduction of number and duration of AF episodes below baseline (FIG. 3) ([3]; 600 mg): about 70%
median percent reduction in AT/AF burden ([3]; 600 mg BID, Treatment Month 3, ITT population): 80%
median percent reduction in AT/AF burden ([3]; 600 mg BID, Treatment Month 3, mITT population): 83%
median percent change from baseline in duration of AT/AF episodes [3, 4]: −51.3%
median percent change from baseline in number of AT/AF episodes [3, 4]: −52.9%
median percent increase from baseline in duration of NSR [3, 4]: 208.8%
median percent reduction from baseline in AT/AF burden ([3]; 600 mg BID, Treatment Months 1-3, ITT population): 74%
median percent change from baseline in duration of AT/AF episodes [3, 5]: −51.3%
median percent change from baseline in number of AT/AF episodes [3, 5]: −62.1%
median percent increase from baseline in duration of NSR [3, 5]: 241.8%
median percent reduction from baseline in AT/AF burden ([3]; 600 mg BID, Treatment Months 1-3, mITT population): 75%
median percentage reduction in AFB ([3]; 600 mg BID, third month, paragraph refers to ITT population): 83%
AF episodes lasting 24 or more hours (FIG. 6) ([3]; 600 mg dose group): no patients experienced an AF episode lasting 24 or more hours
decrease in number of AT/AF episodes (median percent change from baseline, FIG. 3) ([3]; 600 mg, all three treatment months): more than 60%
median AF episode duration ([3]; 600 mg, month 3): 0
decrease in duration of episodes (median percent change from baseline, FIG. 3) ([3]; 600 mg, treatment month 1): more than 50%
decrease in duration of episodes (median percent change from baseline, FIG. 3) ([3]; 600 mg, treatment month 2): more than 70%
decrease in duration of episodes (median percent change from baseline, FIG. 3) ([3]; 600 mg, treatment month 3): ~70%
mean episode duration (FIG. 4) ([3]; 600 mg, down from nearly 24): less than 1 hour
Patient GCI: patients a lot or completely satisfied with the test medication ([3]; ITT population, dose group not stated): 60.0%
Patient GCI: patients reporting a lot of improvement or complete relief ([3]; dose group not stated, ITT and mITT both named): 46.7%
AFB after one-month washout ([3]; each of the three dose groups): returned to essentially the baseline values
